Here are results for 4 molecules from patent US9433667B2, “Cancer vaccines and vaccination methods” (Cedars-Sinai Medical Center, priority 2006, dated 2016).

Experiment [1] concerns T2 pulsed Her-2 native peptide. In words: IFN-γ production of Her-2 APL-specific CTLs induced in vitro from patient-derived PBMCs. Type of experiment: cell-based, human. Particulars: among four CTLs, two HLA-A*0201 GBM patients, P<0.05 vs No. 52. The protocol:
FIGS. 3A and 3B are bar graphs that show IFN-γ levels after in vitro induction of CTL in patient-derived PBMCs with native or superagonist Her-2 peptides in accordance with an embodiment of the present invention in two different patients.
(§1) The following protocol can be used to produce antigen specific CTL in vitro from patient derived PBMC. To generate dendritic cells, the plastic adherent cells from PBMCs are cultured in AIM-V medium supplemented with recombinant human GM-CSF and recombinant human IL-4 at 37° C. in a humidified CO2 (5%) incubator. Six days later, the immature dendritic cells in the cultures are stimulated with recombinant human TNF-α for maturation. Mature dendritic cells are then harvested on day 8, resuspended in PBS at 1×10^6 per mL with peptide (2 μg/mL), and incubated for 2 hours at 37° C. Autologous CD8+ T cells are enriched from PBMCs using magnetic microbeads (Miltenyi Biotech, Auburn, Calif.). CD8+ T cells (2×10^6 per well) are cocultured with 2×10^5 per well peptide-pulsed dendritic cells in 2 mL/well of AIM-V medium supplemented with 5% human AB serum and 10 units/mL rhIL-7 (Cell Sciences) in each well of 24-well tissue culture plates. About 20 U/ml of IL-2 is added 24 h later at regular intervals, 2 days after each restimulation. […] After 24 hours incubation, IFN-γ in the medium is measured by ELISA assay. […]

Experiment [2] concerns T2 pulsed with gp100 native peptide. In words: IFN-γ production of gp100 APL-specific CTLs induced in vitro from patient-derived PBMCs. Type of experiment: cell-based, human. Particulars: among six CTLs, two HLA-A*0201 GBM patients, P<0.05 vs gp100 (2M). The protocol: FIGS. 2A and 2B are bar graphs that show IFN-γ levels after in vitro induction of CTL in patient-derived PBMCs with dendritic cells pulsed with gp100(2M) or superagonist gp100 peptides in accordance with an embodiment of the present invention in two separate patients.
as §1

Experiment [3] relates to T cells specific for ML-M epitope 19-30. In words: Epitope-specific T cell responses in mice after IV immunization, measured by cell proliferation in vitro. Type of experiment: in vivo, C3H mice. Particulars: for T cell response after immunization: IV immunization, lymph node T cells recalled with peptides, FIG. 1. The protocol: FIG. 1 is a graph depicting levels of epitope-specific T cell responses in mice following immunization IV with mouse lysozyme-M (ML-M), a mouse lysozyme peptide (p19-30), and a mouse lysozyme peptide modified with dibasic residues (18R31R), as measured by cell proliferation in vitro. T cells were isolated from lymph nodes of the animals (3 animals per group) and response to each immunogen was measured.
In studies using mouse lysozyme-M (ML-M) as a model self Ag, it was observed that mice of diverse MHC haplotypes were tolerant to native (unmutated) ML-M and peptide forms of certain T cell epitopes. It was hypothesized that tolerance to a given epitope was not an inherent structural characteristic, but was attributable in part to inefficient processing of the epitope, owing either to the absence of a proteolytic cleavage site adjacent to that determinant, or to the inaccessibility to the proteolytic enzyme(s) of an existing cleavage site within that region of the molecule. In either case, the provision of a new proteolytic cleavage site adjacent to a cryptic determinant may permit scission of the peptide at that site, making the previously cryptic epitope region available for binding to the appropriate MHC molecule, and lead to presentation to specific T cells of that determinant as a neodominant epitope on the APC surface. To test this proposition, a dibasic motif, consisting of two contiguous basic amino acid residues, e.g., arg-arg (RR) or arg-lys (RK), was used.
The targeted regions within ML-M included residues 19-31, which contain cryptic epitopes for mice of the H-2^k haplotype, shown in Table 7.

As to “H- F M A N V A I P H L -NH2 (H-FMANVAIPHL-NH2) [No. 19]”, the “IFN-γ level of CTL stimulated by the peptide” value in experiment [1] is recorded as “highest IFN-γ level”.
For the molecule “H- Y M D Q V P Y S V -NH2 (H-YMDQVPYSV-NH2) [No. 38]”, the “IFN-γ level of CTL stimulated by the peptide” value in experiment [2] was “highest IFN-γ level”.
As to “RR-GYYGVSLADWVC-RR (RRGYYGVSLADWVCRR; RR flanking dibasic residues; Synthetically generated peptide) [RR-p18-31-RR]”, the “T cell response after immunization” value in experiment [3] is given as “raised a potent T cell response”. The “in vitro restimulation of T cells primed by RR-p18-31-RR” value in experiment [3] (recall antigen in vitro) is given as “could be restimulated”.

B1: mouse lysozyme-M (protein, UniProt P08905 19-148, looked up)
Lysozyme C-2: KVYERCEFARTLKRNGMAGYYGVSLADWVCLAQHESNYNTRATNYNRGDQSTDYGIFQINSRYWCNDGKTPRAVNACGINCSALLQDDITAAIQCAKRVVRDPQGIRAWVAWRAHCQNRDLSQYIRNCGV
notes: model self antigen, native (unmutated) mouse lysozyme-M
As to B1, in experiment [3], the “T cell response after immunization” value is reported as “failed to respond”.
